Legend:
Normal erythrocytes = test: Oxygen dissociation curve / oxygen affinity, normal erythrocytes; format: cell-based, human
Procedure: (§1) (1) A 50% suspension of human erythrocytes in pH 7.09 8BisTris/NaCl buffer005M BisTris(bis(2-hydroxyethyl)imino-tris(hydroxymethyl)methane and 0.13M NaCl was incubated for 15 minutes at 37° C. with the 2:1 zinc(II) complex of 2-ethyl-3-hydroxy-4-pyrone in the presence of an excess of the ligand-forming compound, the complex being formed in situ using zinc sulphate and a 10 molar excess of 2-ethyl-3-hydroxy-4-pyrone (to provide the 2:1 complex and an 8 molar excess of the pyrone). The oxygen dissociation curve of the erythrocytes was then determined using the method of Bellingham and Huehns (Nature, -968, 218, 924-926) which involves measuring the change of OD at two wavelengths (570 and 555 nm) after the sequential measured addition of oxygen in a tanometer. The experiment was conducted using normal erythrocytes, 2,3-diphosphoglyceric acid (DPG) depleted erythrocytes, foetal erythocytes and sickle erythrocytes. A 2.5 mM concentration of zinc was employed in each case together with a proportion of erythrocytes such as to provide a 2:1 ratio of zinc:haemoglobin and consequent saturation of the haemoglobin by zinc, except in one experiment where the proportion was varied to provide a ratio varying from 0.5:1 to 2:1. In each case a control was carried out in the absence of any zinc sulphate or 2-ethyl-3-hydroxy-4-pyrone and in one case two additional controls were carried out in the presence of one of these compounds used alone. The values for p(O2)50 (i.e. the oxygen pressure at which 50% of the haemoglobin is in the oxygenated form) obtained in each case are shown in Table 2 (together with the inferred Zn:Hb ratio) from which it will be seen that the oxygen affinity of normal erythrocytes, and also of sickle erythrocytes, is increased through treatment of the cells with zinc(II) (2-ethyl-3-hydroxy-4-pyrone)2. Foetal erythrocytes, which contain Hb-F and therefore show different characteristics from normal eythrocytes which contain Hb-A, were as expected not affected. […] With sickle erythrocytes the effect is even more marked as is further illustrated in (2) below.
(§2) (2) The effect of the 2:1 2-ethyl-3-hydroxy-4-pyrone:zinc(II) complex on normal and sickle erythrocytes was further compared using a basically similar procedure to that described in (-) above. Concentrations of 2.5 mM ZnSO4 and 25 mM pyrone, and a 2:1 Zn:Hb ratio were again used but the incubation period was extended to 1 hour. In each case a control experiment was carried out in the absence of any zinc sulphate or pyrone.
(3) The effect of different concentrations of the 2:1 2-ethyl-3-hydroxy-4-pyrone:zinc(II) complex upon normal erythrocytes was studied using a basically similar procedure to that described in (l) above but with ZnSO4 concentrations of 0.1, 1 and 10 mM (and ten times these concentrations of the pyrone) and extending the incubation period to 1 hour. A control experiment was carried out in the absence of any zinc sulphate or pyrone.

erythrocyte ghosts = test: Uptake of 65Zn by erythrocyte ghosts lacking haemoglobin; format: cell-based, human; conditions: 2.5 mM 65ZnSO4 and 25 mM 2-ethyl-3-hydroxy-4-pyrone
Procedure: Uptake of zinc from complexes by haemoglobin (1) A 5% suspension of human erythrocytes in aqueous sodium chloride (b 130 mM) buffered to pH 7.4 by 20 mM Tris hydrochloride (2 ml) was incubated for 1 hour at 37° C. with the 2:1 zinc(II) complex in the presence of an excess of the ligand-forming compound. The complex was formed in situ in the buffer using ^65 Zn labelled ZnSO4 at a concentration selected over a range from 1×10^-6 to 4×10^-3 M compound at ten times this concentration and a small amount of Tris free base (to about 2 mM) added to the medium to avoid an acid pH on reaction of the ZnSO4 and the compound to form the complex. Following the period of incubation, an aliquot of the erythrocyte/medium mixture was placed above a layer of silicone oil and the erythrocytes separated by […] centrifugation through the oil. The ^65 Zn levels associated with the erythrocytes and the incubation medium were then counted and the distribution ratio (concentration in erythrocytes/concentration in medium) calculated. […]

haemoglobin [1] = test: Donation of zinc to haemoglobin, elution profile of 65Zn label on PD-10 column; format: binding
Procedure: There was no evidence of any saturation of the rate of uptake over the concentration range studied so that the complex is not actively transported and, in order to account for the high distribution ratios observed, the zinc must therefore dissociate from the complex and bind to a macromolecule or membrane associated with the erythrocyte. The experiment just described was repeated at a concentration of 2.5 mM ^65 ZnSO4 and 25 mM 2-ethyl-3-hydroxy-4-pyrone using erythrocyte ghosts in which the haemoglobin is lacking rather than whole erythrocytes. […] (2) The ability of the zinc(II) complex of 2-ethyl-3-hydroxy-4-pyrone to donate zinc to haemoglobin was investigated by [j studying the elution profile of the ^65 Zn label when a mixture of haemoglobin and the ^65 Zn-labelled complex (at 1 mM concentration)in NaCI (130 mM) buffered to pH 7.4 by Tris hydrochloride is applied to a PD-10 colum (Sephadex […] gel permeation column - Pharmacia).

Foetal erythrocytes = test: Oxygen dissociation curve / oxygen affinity, foetal erythrocytes; format: cell-based, human
Procedure: (§3) (1) A 50% suspension of human erythrocytes in pH 7.09 8BisTris/NaCl buffer005M BisTris(bis(2-hydroxyethyl)imino-tris(hydroxymethyl)methane and 0.13M NaCl was incubated for 15 minutes at 37° C. with the 2:1 zinc(II) complex of 2-ethyl-3-hydroxy-4-pyrone in the presence of an excess of the ligand-forming compound, the complex being formed in situ using zinc sulphate and a 10 molar excess of 2-ethyl-3-hydroxy-4-pyrone (to provide the 2:1 complex and an 8 molar excess of the pyrone). The oxygen dissociation curve of the erythrocytes was then determined using the method of Bellingham and Huehns (Nature, -968, 218, 924-926) which involves measuring the change of OD at two wavelengths (570 and 555 nm) after the sequential measured addition of oxygen in a tanometer. The experiment was conducted using normal erythrocytes, 2,3-diphosphoglyceric acid (DPG) depleted erythrocytes, foetal erythocytes and sickle erythrocytes. A 2.5 mM concentration of zinc was employed in each case together with a proportion of erythrocytes such as to provide a 2:1 ratio of zinc:haemoglobin and consequent saturation of the haemoglobin by zinc, except in one experiment where the proportion was varied to provide a ratio varying from 0.5:1 to 2:1. […]

[2] = tested on: DPG depleted erythrocytes; test: Oxygen dissociation curve / oxygen affinity, DPG depleted erythrocytes; format: cell-based, human; conditions: 2.5 mM ZnSO4 + 25 mM pyrone, Zn:Hb 2:1; control 15.75
Procedure: as §3

Sickle erythrocytes = test: Oxygen dissociation curve / oxygen affinity, sickle erythrocytes; format: cell-based, human
Procedure: as §1, §2

haemoglobin [3] = biological target: T1, haemoglobin (Homo sapiens, UniProt P68871+P69905); test: Uptake of 65Zn from 2:1 zinc(II) complexes by haemoglobin in human erythrocytes; format: cell-based; conditions: 2:1 zinc complex 5 x 10^-4M with excess ligand, 1 hour, 37° C., pH 7.4, human erythrocytes
T1 construct: A 5% suspension of human erythrocytes in aqueous sodium chloride; endogenous in cells; host or cells: human erythrocytes (intact, 5% suspension)
Procedure: Uptake of zinc from complexes by haemoglobin (1) A 5% suspension of human erythrocytes in aqueous sodium chloride (b 130 mM) buffered to pH 7.4 by 20 mM Tris hydrochloride (2 ml) was incubated for 1 hour at 37° C. with the 2:1 zinc(II) complex in the presence of an excess of the ligand-forming compound. The complex was formed in situ in the buffer using ^65 Zn labelled ZnSO4 at a concentration selected over a range from 1×10^-6 to 4×10^-3 M compound at ten times this concentration and a small amount of Tris free base (to about 2 mM) added to the medium to avoid an acid pH on reaction of the ZnSO4 and the compound to form the complex. Following the period of incubation, an aliquot of the erythrocyte/medium mixture was placed above a layer of silicone oil and the erythrocytes separated by […] centrifugation through the oil. The ^65 Zn levels associated with the erythrocytes and the incubation medium were then counted and the distribution ratio (concentration in erythrocytes/concentration in medium) calculated. The average distribution ratios of zinc obtained in a series of experiments for the homogeneous 2:1 complex from the ligand-providing compounds 3-hydroxy-2methyl-4-pyrone, 2-ethyl-3-hydroxy-4-pyrone and 3-hydroxy-2-(1'-methylethyl)-4-pyrone at a concentration of 5 x 10^-4M are shown in Table 1 together with the percentage of the total amount of zinc which is absorbed in the erythrocytes.

T1 sequence (P69905 2-142 limits assumed): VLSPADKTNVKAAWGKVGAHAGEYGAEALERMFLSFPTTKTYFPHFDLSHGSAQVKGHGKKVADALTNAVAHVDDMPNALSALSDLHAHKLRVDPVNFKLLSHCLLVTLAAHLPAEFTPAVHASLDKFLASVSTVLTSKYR
T1 sequence (P68871 2-147 limits assumed): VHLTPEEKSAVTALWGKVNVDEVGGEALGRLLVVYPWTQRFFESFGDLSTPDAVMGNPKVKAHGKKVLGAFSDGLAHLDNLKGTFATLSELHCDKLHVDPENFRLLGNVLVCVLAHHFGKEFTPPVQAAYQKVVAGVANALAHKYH

O=S(=O)([O-])[O-].[Zn+2] [ZnSO4, zinc sulphate, reference compound]
P(O2)50 (Normal erythrocytes; 2.5 mM ZnSO4 alone, Zn:Hb 2:1, control 26): 24.5 mmHg

CCc1occc(=O)c1O [pyrone, 2-ethyl-3-hydroxy-4-pyrone, reference compound]
P(O2)50 (Normal erythrocytes; 2.5 mM pyrone alone, Zn:Hb 0:1, control 26): 28 mmHg

CCc1occc(=O)c1[O-].CCc1occc(=O)c1[O-].[Zn+2] [zinc(II) (2-ethyl-3-hydroxy-4-pyrone)2]
uptake of zinc by erythrocyte ghosts (in words) (erythrocyte ghosts): Only a low level of uptake of zinc was observed | binding of zinc to haemoglobin (in words) (haemoglobin [1]; 1 mM complex, 20-fold molar proportion of ligand:zinc, NaCl 130 mM, pH 7.4): the zinc is found to bind tightly to haemoglobin | binding of zinc to haemoglobin versus ligand (in words) (haemoglobin [1]; haemoglobin versus 2-ethyl-3-hydroxy-4-pyrone): zinc binds more tightly to haemoglobin than to 2-ethyl-3-hydroxy-4-pyrone | P(O2)50 (Foetal erythrocytes; 2.5 mM ZnSO4 + 25 mM pyrone, Zn:Hb 0:1 (assumed no uptake by HbF), control 22): 24 mmHg | oxygen affinity (in words) (Foetal erythrocytes; foetal erythrocytes, 2.5 mM zinc, 15 minutes): not affected | P(O2)50 (Normal erythrocytes; 2.5 mM ZnSO4 + 25 mM pyrone, Zn:Hb 0.5:1, control 30.0): 23.5 mmHg | P(O2)50 (Normal erythrocytes; 2.5 mM ZnSO4 + 25 mM pyrone, Zn:Hb 1:1, control 30.0): 17.0 mmHg | P(O2)50 (Normal erythrocytes; 2.5 mM ZnSO4 + 25 mM pyrone, Zn:Hb 1.5:1, control 30.0): 15.0 mmHg | P(O2)50 (Normal erythrocytes; 2.5 mM ZnSO4 + 25 mM pyrone, Zn:Hb 2:1, control 26): 15.5 mmHg | P(O2)50 (Normal erythrocytes; 2.5 mM ZnSO4 + 25 mM pyrone, Zn:Hb 2:1, control 27.5): 15 mmHg | P(O2)50 (Normal erythrocytes; 2.5 mM ZnSO4 + 25 mM pyrone, Zn:Hb 2:1, control 30.0): 15.0 mmHg | shift in the oxygen dissociation curve (in words) (Normal erythrocytes; 2.5 mM ZnSO4, 25 mM pyrone, 1 hour, FIG. 1a): a significant left shift in the oxygen dissociation curve | p(O2)50, treated cells (Normal erythrocytes; 2.5 mM ZnSO4 and 25 mM pyrone, Zn:Hb 2:1, 1 hour (FIG. 1a), control 27.5): 15.0 mm Hg | p(O2)50 shift (Normal erythrocytes; 2.5 mM ZnSO4 and 25 mM pyrone, Zn:Hb 2:1, 1 hour, versus control, normal erythrocytes): 12.5 mm Hg | dose response of shift in the oxygen dissociation curve (in words) (Normal erythrocytes; ZnSO4 0.1, 1 and 10 mM with ten times pyrone, 1 hour, FIG. 2): dose response effect | shift in the oxygen dissociation curve (in words) (Normal erythrocytes; complex 0.1 mM, 1 hour, FIG. 2): still a discernible left shift in the oxygen dissociation curve | oxygen affinity (in words) (Normal erythrocytes; normal erythrocytes, 2.5 mM zinc, 15 minutes): increased | P(O2)50 [2]: 9.25 mmHg | P(O2)50 (Sickle erythrocytes; 2.5 mM ZnSO4 + 25 mM pyrone, Zn:Hb 2:1, control 36): 18.5 mmHg | shift in the oxygen dissociation curve (in words) (Sickle erythrocytes; 2.5 mM ZnSO4, 25 mM pyrone, 1 hour, FIG. 1b): a significant left shift in the oxygen dissociation curve is produced in both cases but that the difference from the control is more marked for the sickle erythrocytes | p(O2)50, treated cells (Sickle erythrocytes; 2.5 mM ZnSO4 and 25 mM pyrone, Zn:Hb 2:1, 1 hour (FIG. 1b), control 36.0): 18.5 mm Hg | p(O2)50 shift (Sickle erythrocytes; 2.5 mM ZnSO4 and 25 mM pyrone, Zn:Hb 2:1, 1 hour, versus control, sickle erythrocytes): 17.5 mm Hg | oxygen affinity (in words) (Sickle erythrocytes; sickle erythrocytes, 2.5 mM zinc, 15 minutes): increased | Distribution ratio (concentration in erythrocytes/concentration in medium) (haemoglobin [3]): 300 | Percentage of zinc absorbed (haemoglobin [3]): 96%

CC(C)c1occc(=O)c1[O-].CC(C)c1occc(=O)c1[O-].[Zn+2] [zinc(II) (3-hydroxy-2-(2'-methylethyl)-4-pyrone)2]
Distribution ratio (concentration in erythrocytes/concentration in medium) (haemoglobin [3]): 550 | Percentage of zinc absorbed (haemoglobin [3]): 98%

Cc1occc(=O)c1[O-].Cc1occc(=O)c1[O-].[Zn+2] [zinc(II) (3-hydroxy-2-methyl--pyrone)2]
Distribution ratio (concentration in erythrocytes/concentration in medium) (haemoglobin [3]): 8 | Percentage of zinc absorbed (haemoglobin [3]): 54%

Source: patent US4866052A, “Treatment of sickle cell disease” (National Research Development Corporation, priority 1986, dated 1989)
